Source: patent publication US20210045385A1, “PYRIDAZINONE-SUBSTITUTED KETOXIMES AS HERBICIDES” (FMC Corporation, priority 2018, published 2021)

Experiments:
Assay type in all cases: in vivo
rice (Oryza sativa) = assay: Test B flooded paddy test, visual plant response rating; conditions: 250 g ai/ha, Flood, applied to paddy water, 2-leaf stage, evaluated after 13 to 15 days
Method in brief: (§1)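 Flooded-pot treatment: water 3 cm over the soil, chemical delivered into that water, depth unchanged for the duration. Assessed by eye versus controls following 13–15 greenhouse days; plants were at 2 leaves when dosed.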

[1] = system: ducksalad (Heteranhera limosa); assay: as above; conditions: 250 g ai/ha, Flood, applied to paddy water, 2-leaf stage, evaluated after 13 to 15 days
Method in brief: as §1

[2] = system: barnyardgrass (Echinochloa crus-galli); assay: as above; conditions: 250 g ai/ha, Flood, applied to paddy water, 2-leaf stage, evaluated after 13 to 15 days
Method in brief: as §1

[3] = system: sedge, umbrella (small-flower umbrella sedge, Cyperus difformis); assay: as above; conditions: 250 g ai/ha, Flood, applied to paddy water, 2-leaf stage, evaluated after 13 to 15 days
Method in brief: as §1

[4] = system: blackgrass (Alopecurus myosuroides); assay: Test A postemergence, visual plant response rating; conditions: for Blackgrass plant response rating (0 to 100 scale): 500 g ai/ha, postemergence, 0 is no effect, 100 is complete control; for Blackgrass plant response rating: Postemergence, 125 g ai/ha, 0 to 100 scale (0 no effect, 100 complete control)
Method in brief: (§2)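 Greenhouse pot test in loam–sand soil mix: compound in a surfactant-containing non-phytotoxic solvent applied preemergence (directed soil spray) or postemergence (one- to two-leaf plants, 2–10 cm). Injury scored visually after ~10 days, 0–100.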

[5] = system: ragweed (common ragweed, Ambrosia elatior); assay: Test A postemergence, visual plant response rating; conditions: for Ragweed plant response rating (0 to 100 scale): 500 g ai/ha, postemergence, 0 is no effect, 100 is complete control; for Ragweed plant response rating: Postemergence, 125 g ai/ha, 0 to 100 scale (0 no effect, 100 complete control)
Method in brief: as §2

[6] = system: foxtail, giant (giant foxtail, Setaria faberii); assay: Test A postemergence, visual plant response rating; conditions: for Foxtail, Giant plant response rating (0 to 100 scale): 500 g ai/ha, postemergence, 0 is no effect, 100 is complete control; for Foxtail, Giant plant response rating: Postemergence, 125 g ai/ha, 0 to 100 scale (0 no effect, 100 complete control)
Method in brief: as §2

[7] = system: wheat (Triticum aestivum); assay: Test A postemergence, visual plant response rating; conditions: for Wheat plant response rating (0 to 100 scale): 500 g ai/ha, postemergence, 0 is no effect, 100 is complete control; for Wheat plant response rating: Postemergence, 125 g ai/ha, 0 to 100 scale (0 no effect, 100 complete control)
Method in brief: as §2

kochia (Kochia scoparia) [8] = assay: Test A postemergence, visual plant response rating; conditions: for Kochia plant response rating (0 to 100 scale): 500 g ai/ha, postemergence, 0 is no effect, 100 is complete control; for Kochia plant response rating: Postemergence, 125 g ai/ha, 0 to 100 scale (0 no effect, 100 complete control)
Method in brief: as §2

[9] = system: barnyardgrass (Echinochloa crus-galli); assay: Test A postemergence, visual plant response rating; conditions: for Barnyardgrass plant response rating (0 to 100 scale): 500 g ai/ha, postemergence, 0 is no effect, 100 is complete control; for Barnyardgrass plant response rating: Postemergence, 125 g ai/ha, 0 to 100 scale (0 no effect, 100 complete control)
Method in brief: as §2

[10] = system: Italian ryegrass (Lolium multiflorum); assay: Test A postemergence, visual plant response rating; conditions: for Ryegrass, Italian plant response rating (0 to 100 scale): 500 g ai/ha, postemergence, 0 is no effect, 100 is complete control; for Ryegrass, Italian plant response rating: Postemergence, 125 g ai/ha, 0 to 100 scale (0 no effect, 100 complete control)
Method in brief: as §2

corn (Zea mays) = assay: Test A postemergence, visual plant response rating; conditions: for Corn plant response rating (0 to 100 scale): 500 g ai/ha, postemergence, 0 is no effect, 100 is complete control; for Corn plant response rating: Postemergence, 125 g ai/ha, 0 to 100 scale (0 no effect, 100 complete control)
Method in brief: as §2

[11] = system: pigweed (Amaranthus retroflexus); assay: Test A postemergence, visual plant response rating; conditions: for Pigweed plant response rating (0 to 100 scale): 500 g ai/ha, postemergence, 0 is no effect, 100 is complete control; for Pigweed plant response rating: Postemergence, 125 g ai/ha, 0 to 100 scale (0 no effect, 100 complete control)
Method in brief: as §2

[12] = system: galium (catchweed bedstraw, Galium aparine); assay: Test A postemergence, visual plant response rating; conditions: for Galium plant response rating (0 to 100 scale): 500 g ai/ha, postemergence, 0 is no effect, 100 is complete control; for Galium plant response rating: Postemergence, 125 g ai/ha, 0 to 100 scale (0 no effect, 100 complete control)
Method in brief: as §2

[13] = system: ragweed (common ragweed, Ambrosia elatior); assay: Test A preemergence, visual plant response rating; conditions: for Ragweed plant response rating: 125 g ai/ha, preemergence, 0 to 100 scale, 0 no effect, 100 complete control; for Ragweed plant response rating (0 to 100 scale): 500 g ai/ha Preemergence, approx. 10 days
Method in brief: as §2

[14] = system: foxtail, giant (giant foxtail, Setaria faberii); assay: Test A preemergence, visual plant response rating; conditions: for Foxtail, Giant plant response rating: 125 g ai/ha, preemergence, 0 to 100 scale, 0 no effect, 100 complete control; for Foxtail, Giant plant response rating (0 to 100 scale): 500 g ai/ha Preemergence, approx. 10 days
Method in brief: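 Ratings 0–100 (100 = complete control), visual, vs untreated controls at ~10 days. Application pre- or postemergence; solvent mixture with surfactant; loam/sand medium.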

kochia (Kochia scoparia) [15] = assay: Test A preemergence, visual plant response rating; conditions: for Kochia plant response rating: 125 g ai/ha, preemergence, 0 to 100 scale, 0 no effect, 100 complete control; for Kochia plant response rating (0 to 100 scale): 500 g ai/ha Preemergence, approx. 10 days
Method in brief: as §2

[16] = system: barnyardgrass (Echinochloa crus-galli); assay: Test A preemergence, visual plant response rating; conditions: for Barnyardgrass plant response rating: 125 g ai/ha, preemergence, 0 to 100 scale, 0 no effect, 100 complete control; for Barnyardgrass plant response rating (0 to 100 scale): 500 g ai/ha Preemergence, approx. 10 days
Method in brief: as §2

[17] = system: Italian ryegrass (Lolium multiflorum); assay: Test A preemergence, visual plant response rating; conditions: for Ryegrass, Italian plant response rating: 125 g ai/ha, preemergence, 0 to 100 scale, 0 no effect, 100 complete control; for Ryegrass, Italian plant response rating (0 to 100 scale): 500 g ai/ha Preemergence, approx. 10 days
Method in brief: as §2

[18] = system: pigweed (Amaranthus retroflexus); assay: Test A preemergence, visual plant response rating; conditions: for Pigweed plant response rating: 125 g ai/ha, preemergence, 0 to 100 scale, 0 no effect, 100 complete control; for Pigweed plant response rating (0 to 100 scale): 500 g ai/ha Preemergence, approx. 10 days
Method in brief: as §2

| SMILES | Plant response rating, Rice (0 to 100 scale, 0 is no effect, 100 is complete control) (rice (Oryza sativa)) | Plant response rating, Ducksalad (0 to 100 scale, 0 is no effect, 100 is complete control) [1] | Plant response rating, Barnyardgrass (0 to 100 scale, 0 is no effect, 100 is complete control) [2] | Plant response rating, Sedge, Umbrella (0 to 100 scale, 0 is no effect, 100 is complete control) [3] | Blackgrass plant response rating (0 to 100 scale) [4] | Blackgrass plant response rating [4] | Ragweed plant response rating (0 to 100 scale) [5] | Ragweed plant response rating [5] | Foxtail, Giant plant response rating (0 to 100 scale) [6] | Foxtail, Giant plant response rating [6] | Wheat plant response rating (0 to 100 scale) [7] | Wheat plant response rating [7] | Kochia plant response rating (0 to 100 scale) (kochia (Kochia scoparia) [8]) | Kochia plant response rating (kochia (Kochia scoparia) [8]) | Barnyardgrass plant response rating (0 to 100 scale) [9] | Barnyardgrass plant response rating [9] | Ryegrass, Italian plant response rating (0 to 100 scale) [10] | Ryegrass, Italian plant response rating [10] | Corn plant response rating (0 to 100 scale) (corn (Zea mays)) | Corn plant response rating (corn (Zea mays)) | other results |
| --- | --- | --- | --- | --- | --- | --- | --- | --- | --- | --- | --- | --- | --- | --- | --- | --- | --- | --- | --- | --- | --- |
| CO/N=C(/c1cc(Cl)ccc1C(F)(F)F)c1c(O)c(C)nn(C)c1=O [Compound 95] | 0 | 0 | 0 | 0 | 100 | 60 | 90 | 80 | 80 | 60 | 70 | 40 | 80 | 60 | 60 | 50 | 100 | 80 | 40 | 0 | Pigweed plant response rating (0 to 100 scale) [11]: 80; Pigweed plant response rating [11]: 70; Galium plant response rating (0 to 100 scale) [12]: 90; Galium plant response rating [12]: 80; Ragweed plant response rating [13]: 30; Ragweed plant response rating (0 to 100 scale) [13]: 100; Foxtail, Giant plant response rating [14]: 80; Foxtail, Giant plant response rating (0 to 100 scale) [14]: 100; Kochia plant response rating (kochia (Kochia scoparia) [15]): 10; Kochia plant response rating (0 to 100 scale) (kochia (Kochia scoparia) [15]): 70; Barnyardgrass plant response rating [16]: 60; Barnyardgrass plant response rating (0 to 100 scale) [16]: 60; Ryegrass, Italian plant response rating [17]: 90; Ryegrass, Italian plant response rating (0 to 100 scale) [17]: 100; Pigweed plant response rating [18]: 50; Pigweed plant response rating (0 to 100 scale) [18]: 100 |
| CO/N=C(/c1ccccc1F)c1c(O)c(C)nn(C)c1=O [Compound 34] | 0 | 0 | 0 | 0 | 10 | 0 | 50 | 40 | 10 | 0 | 20 | 20 | 20 | 10 | 20 | 0 | 60 | 20 | 0 | 0 | Pigweed plant response rating (0 to 100 scale) [11]: 20; Pigweed plant response rating [11]: 20; Galium plant response rating (0 to 100 scale) [12]: 70; Galium plant response rating [12]: 40; Ragweed plant response rating [13]: 20; Ragweed plant response rating (0 to 100 scale) [13]: 50; Foxtail, Giant plant response rating [14]: 0; Foxtail, Giant plant response rating (0 to 100 scale) [14]: 40; Kochia plant response rating (kochia (Kochia scoparia) [15]): 0; Kochia plant response rating (0 to 100 scale) (kochia (Kochia scoparia) [15]): 0; Barnyardgrass plant response rating [16]: 0; Barnyardgrass plant response rating (0 to 100 scale) [16]: 0; Ryegrass, Italian plant response rating [17]: 10; Ryegrass, Italian plant response rating (0 to 100 scale) [17]: 60; Pigweed plant response rating [18]: 0; Pigweed plant response rating (0 to 100 scale) [18]: 10 |
| CO/N=C(/c1ccccc1C(C)C)c1c(O)c(C)nn(C)c1=O [Compound 93] | 0 | 65 | 0 | 0 | 70 | 0 | 50 | 10 | 40 | 30 | 10 | 0 | 30 | 0 | 20 | 10 | 80 | 40 | 10 | 10 | Pigweed plant response rating (0 to 100 scale) [11]: 80; Pigweed plant response rating [11]: 50; Galium plant response rating (0 to 100 scale) [12]: 70; Galium plant response rating [12]: 60; Ragweed plant response rating [13]: 0; Ragweed plant response rating (0 to 100 scale) [13]: 0; Foxtail, Giant plant response rating [14]: 10; Foxtail, Giant plant response rating (0 to 100 scale) [14]: 30; Kochia plant response rating (kochia (Kochia scoparia) [15]): 0; Kochia plant response rating (0 to 100 scale) (kochia (Kochia scoparia) [15]): 0; Barnyardgrass plant response rating [16]: 0; Barnyardgrass plant response rating (0 to 100 scale) [16]: 50; Ryegrass, Italian plant response rating [17]: 20; Ryegrass, Italian plant response rating (0 to 100 scale) [17]: 70; Pigweed plant response rating [18]: 0; Pigweed plant response rating (0 to 100 scale) [18]: 20 |
